Laboratory results published in patent publication US20240158447A1, “PEPTIDES FOR USE IN THE TREATMENT OR PREVENTION OF MYOCARDIAL DAMAGE” (THE UNIVERSITY OF WESTERN AUSTRALIA, priority 2020, published 2024).

What was measured:
cTnI.2 wt myocytes [1] = test: Flavoprotein oxidation response to BayK(−), wt myocytes (Example 10); type: cell-based, mouse; settings: 1 μM peptide 20 min, 10 μM BayK(−), FIG. 10A
Description: (§1) In this experiment wt myocytes were pre-exposed to 0.1, 0.5 or 1 μM for 20 min and assessed changes in flavoprotein oxidation and ψm.
(§2) Measurement of mitochondrial flavoprotein oxidation: Flavoprotein autofluorescence was used to measure flavoprotein oxidation based on previously described methods (Yaniv Y, Juhaszova M, Lyashkov A E, Spurgeon H A, Sollott S J, Lakatta E G. Ca2+-regulated-cAMP/PKA signaling in cardiac pacemaker cells links ATP supply to demand. J Mol Cell Cardiol. 2011; 51(5):740-8). […] Fluorescent images were acquired at 1 min intervals with 200 ms exposure. Metamorph 6.3 (Version 7.10.3) was used to quantify the signal by manually tracing myocytes. An equivalent region not containing cells was used as background and was subtracted. Fluorescence values recorded over 5 min before and 5 min after addition of drugs were averaged and alterations in fluorescent ratios reported as the percentage increase from the basal average. FCCP (50 μM) and NaCN (40 mM) was added at the end of each experiment to achieve a respective maximal and minimal fluorescence value indicative of maximal and minimal flavoprotein oxidation.
(§3) The ICA-L agonist BayK(−) was used to activate the channel and assess mitochondrial function. […] FIG. 10 presents the mean+/−SEM of flavoprotein fluorescence from cTnI.2 wt and cTnI-G2035 mutant myocytes before and after exposure to 10 μM BayK(−) in the presence of 1 μM AID(S)-TAT, and increasing concentrations of variant peptides as indicated. N=no. of animals, n=no. of cardiomyocytes. P values shown compared with AID(S)-TAT as determined by the Kruskal-Wallis test.

cTnI.2 wt myocytes [2] = test: Mitochondrial membrane potential (JC-1) response to BayK(−), wt myocytes (Example 10); type: cell-based, mouse; settings: 0.5 μM peptide, calcium-free, FIG. 11A
Description: as §1
Measurement of mitochondrial membrane potential: The fluorescent indicator 5,5′,6,6′-tetrachloro1,1′,3,3′-tetraethylbenzimidazolylcarbocyanine iodide (JC-1) was used to measure mitochondrial membrane potential (ψm) as previously described (Viola H M, Arthur P G, Hool L C. Transient exposure to hydrogen peroxide causes an increase in mitochondria-derived superoxide as a result of sustained alteration in L-type Ca2+ channel function in the absence of apoptosis in ventricular myocytes. Circ Res. 2007; 100(7):1036-44). […] Images were acquired at 2 min intervals with 50 ms exposure. Metamorph 6.3 (Version 7.10.3) was used to quantify the signal by manually tracing myocytes. An equivalent region not containing cells was used as background and was subtracted. The 580 nm/535 nm ratiometric fluorescence values recorded over 6 min before and 4 min after addition of drugs were averaged and alterations in fluorescent ratios reported as the percentage increase from the basal average. […] In addition, individual 580 and 535 signals were assessed in each experiment to determine whether the fluorescent indicator was accurately measuring ψm. […]
Based on results obtained from in vitro assessment of flavoprotein oxidation, the effect of 0.5 μM AID-TAT variants on changes in mitochondrial membrane potential (ψm) was further explored. Experiments were performed using JC-1 fluorescence under calcium-free conditions as previously described (Viola H, Johnstone V, Cserne Szappanos H, Richman T, Tsoutsman T, Filipovska A, et al. The L-type Ca(2+) channel facilitates abnormal metabolic activity in the cTnI-G2035 mouse model of hypertrophic cardiomyopathy. J Physiol. 2016; 594(14):4051-70; Viola H M, Shah A A, Johnstone V P A, Cserne Szappanos H, Hodson M P, Hool L C. Characterization and validation of a preventative therapy for hypertrophic cardiomyopathy in a murine model of the disease. Proc Natl Acad Sci U S A. 2020; 117(37):23113-24). […]

[3] = system: cTnI-G203S mutant myocytes; test: Mitochondrial membrane potential (JC-1) response to BayK(−), cTnI-G203S myocytes (Example 10); type: cell-based, mouse; settings: for BayK(−) induced increase in ψm (JC-1 fluorescence): 0.5 μM peptide, calcium-free, FIG. 11B
Description: as §1
Measurement of mitochondrial membrane potential: The fluorescent indicator 5,5′,6,6′-tetrachloro1,1′,3,3′-tetraethylbenzimidazolylcarbocyanine iodide (JC-1) was used to measure mitochondrial membrane potential (ψm) as previously described (Viola H M, Arthur P G, Hool L C. Transient exposure to hydrogen peroxide causes an increase in mitochondria-derived superoxide as a result of sustained alteration in L-type Ca2+ channel function in the absence of apoptosis in ventricular myocytes. Circ Res. 2007; 100(7):1036-44). […] Images were acquired at 2 min intervals with 50 ms exposure. Metamorph 6.3 (Version 7.10.3) was used to quantify the signal by manually tracing myocytes. An equivalent region not containing cells was used as background and was subtracted. The 580 nm/535 nm ratiometric fluorescence values recorded over 6 min before and 4 min after addition of drugs were averaged and alterations in fluorescent ratios reported as the percentage increase from the basal average. To confirm that the signal was indicative of ψm, 40 mM NaCN was added at the end of each experiment to collapse ψm. In addition, individual 580 and 535 signals were assessed in each experiment to determine whether the fluorescent indicator was accurately measuring ψm. For calcium-free experiments, cells were exposed to calcium-free HBS (supplemented with 3 mM EGTA and 200 nM JC-1) for at least 3 h prior to measuring changes in ψm.
Based on results obtained from in vitro assessment of flavoprotein oxidation, the effect of 0.5 μM AID-TAT variants on changes in mitochondrial membrane potential (ψm) was further explored. Experiments were performed using JC-1 fluorescence under calcium-free conditions as previously described (Viola H, Johnstone V, Cserne Szappanos H, Richman T, Tsoutsman T, Filipovska A, et al. The L-type Ca(2+) channel facilitates abnormal metabolic activity in the cTnI-G2035 mouse model of hypertrophic cardiomyopathy. J Physiol. 2016; 594(14):4051-70; Viola H M, Shah A A, Johnstone V P A, Cserne Szappanos H, Hodson M P, Hool L C. Characterization and validation of a preventative therapy for hypertrophic cardiomyopathy in a murine model of the disease. Proc Natl Acad Sci U S A. 2020; 117(37):23113-24). […] FIG. 11 presents the mean+/−SE of JC-1 fluorescence from cTnI.2 wt and cTnI-G203S mutant myocytes before and after exposure to 10 μM BayK(−) in the presence of 1 μM AID(S)-TAT, and 0.5 μM of variant peptides as indicated. N=no. of animals, n=no. of cardiomyocytes. P values shown compared with AID(S)-TAT as determined by the Kruskal-Wallis test.

cTnI-G203S mice [4] = test: Echocardiography of pre-cardiomyopathic cTnI-G203S mice (Example 15); type: in vivo, mouse; settings: 5 μM, 3×/wk/5 wk; versus AID(S)-TAT; FIG. 15
From the text: Twenty to thirty week-old male mice expressing the human cTnI gene encoding the human disease-causing cTnI-G203S were generated and used for the in vivo studies. By way of background, the mice develop hallmark features of HCM between 20 and 25 weeks (Viola H, Johnstone V, Cserne Szappanos H, Richman T, Tsoutsman T, Filipovska A, et al. The L-type Ca(2+) channel facilitates abnormal metabolic activity in the cTnI-G2035 mouse model of hypertrophic cardiomyopathy. J Physiol. 2016; 594(14):4051-70; Viola H M, Shah A A, Johnstone V P A, Cserne Szappanos H, Hodson M P, Hool L C. Characterization and validation of a preventative therapy for hypertrophic cardiomyopathy in a murine model of the disease. Proc Nati Aced Sci U S A. 2020; 117(37):23113-24; Tsoutsman T, Chung J, Doolan A, Nguyen L, Williams IA, Tu E, et al. Molecular insights from a novel cardiac troponin I mouse model of familial hypertrophic cardiomyopathy. J Mol Cell Cardiol. 2006; 41(4):623-32). Age-matched male mice expressing the normal human troponin I gene were used as controls and indicated as wild-type (wt). For in vivo studies, 20-week old cTnI-G203S mice were treated with 10 μM AID(S)-TAT (2 mg/kg) or 5 μM AID-TAT mutant peptides via intraperitoneal injection, 3 times per week for a total duration of 5 weeks. The peptide was dissolved in phosphate buffered saline solution (PBS), and the total amount of the 10 μM AID-TAT mutant peptides administered over 5 weeks was 0.9 mg. The total amount of the 5 μM AID-TAT mutant peptides administered over 5 weeks was 0.45 mg Male mice were utilized to eliminate potential differences in responses due to gender. The number of mice used is indicated by N.
Echocardiographic studies to measure left ventricular function were performed on mice under light methoxyflurane anaesthesia with the use of an i13L probe on a Vivid™ 7 IQ ultrasound system (GE Healthcare, Little Chalfont, UK) as previously described (Viola H, Johnstone V, Cserne Szappanos H, Richman T, Tsoutsman T, Filipovska A, et al. The L-type Ca(2+) channel facilitates abnormal metabolic activity in the cTnI-G2035 mouse model of hypertrophic cardiomyopathy. J Physiol. 2016; 594(14):4051-70; Viola H M, Shah A A, Johnstone V P A, Cserne Szappanos H, Hodson M P, Hool L C. Characterization and validation of a preventative therapy for hypertrophic cardiomyopathy in a murine model of the disease. Proc Natl Acad Sci U S A. 2020; 117(37):23113-24; Viola H M, Johnstone V P A, Cserne Szappanos H, Richman T R, Tsoutsman T, Filipovska A, et al. The Role of the L-Type Ca(2+) Channel in Altered Metabolic Activity in a Murine Model of Hypertrophic Cardiomyopathy. JACC Basic Transl Sci. 2016; 1(1-2):61-72). Each N represents the average of quantitative measurements from wt or cTnI-G203S mice for each treatment group.

[5] = system: cTnI-G203S mutant myocytes; test: Flavoprotein oxidation response to BayK(−), cTnI-G203S myocytes (Example 10); type: cell-based, mouse; settings: 0.5 μM peptide, 10 μM BayK(−), FIG. 10D
Description: as §1
as §2, with “An equivalent region not containing cells was used as background and was subtracted.” left out
as §3, with “N=no. of animals, n=no. of cardiomyocytes. P values shown compared with AID(S)-TAT as determined by the Kruskal-Wallis test.” left out

cTnI-G203S mice [6] = test: Heart weight to body weight ratio of treated cTnI-G203S mice; type: in vivo, mouse; settings: 5 μM, 3×/wk/5 wk; compared with cTnI-G203S AID(S)-TAT; FIG. 16
Description: The effect of treatment of the mice with peptides on the development of hypertrophy assessed as changes in heart weight to body weight ratio was also examined. […] FIG. 16 presents the mean±SEM of heart weight to body weight ratio measurements from wt and cTnI-G203S mice treated with 10 μM AID(S)-TAT, 10 μM AID-TAT, 5 μM AIDP7-TAT, 5 μM AIDP14-TAT, 5 μM AIDP15-TAT or 5 μM AIDP16-TAT. n=number of mice as indicated. *P<0.05, **P<0.01 compared with cTnI-G203S AID(S)-TAT as determined by Kruskal-Wallis tests.

Substance | BayK(−) induced increase in flavoprotein oxidation (cTnI.2 wt myocytes [1]) | BayK(−) induced increase in ψm (JC-1 fluorescence) (cTnI.2 wt myocytes [2]) | BayK(−) induced increase in ψm (JC-1 fluorescence) [3] | EF, ejection fraction (cTnI-G203S mice [4]) | FS, fractional shortening (cTnI-G203S mice [4]) | IVSd, intraventricular septum in diastole (cTnI-G203S mice [4]) | IVSs, intraventricular septum in systole (cTnI-G203S mice [4]) | LVPWs, left ventricular posterior wall in systole (cTnI-G203S mice [4]) | BayK(−) induced increase in flavoprotein oxidation [5] | normalising mitochondrial metabolic activity (in vitro, overall) ([3]; flavoprotein oxidation and JC-1 data together) | LVEDd, left ventricular end diameter during diastole (cTnI-G203S mice [4]) | LVEDs, left ventricular end diameter during systole (cTnI-G203S mice [4]) | LVPWd, left ventricular posterior wall in diastole (cTnI-G203S mice [4]) | heart weight to body weight ratio (cTnI-G203S mice [6])
AIDP15-TAT: QQEEEDEKGYLDWITQAE with TAT sequence | just as effective at attenuating the response in wt myocytes as the original AID-TAT | significantly attenuated the response | significantly attenuated the response | effectively restored | effectively restored | effectively restored | effectively restored | effectively restored |  |  |  |  |  | 
AIDP14-TAT: QQEEEDLKGYLDWITQAE with TAT sequence |  | significantly attenuated the response | significantly attenuated the response | effectively restored | effectively restored | effectively restored | effectively restored | effectively restored | significantly attenuated increases in flavoprotein oxidation resulting from BayK(−) exposure | most effective in normalising mitochondrial metabolic activity | trend toward increased LVEDd | effectively restored | effectively restored | significantly decreased heart weight/body weight
